The text below walks through data of patent US12139492B2 (Endotarget Inc., priority 2021, dated 2024).

What all share (assay type): cell-based
One test concerns the target BTK (Homo sapiens, UniProt Q06187). The test can be described thus: BTK degradation, DC50 and Dmax of Table 1 (cell line not given). The conditions noted are these: for DC50: concentration giving 50% reduction of BTK expression level. The arrangement: endogenous in cells.
The subject of a further test is Mino cells. Put plainly: Antiproliferative effect, MTS cell viability assay, Mino cells. The conditions noted are these: Homo sapiens, MINO, Mino mantle cell lymphoma cells; read-out: IC50 (anti-proliferation) Mino cells. The method, boiled down: (§1)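 Tested at six concentrations (0 to 10 μM in tenfold steps), 72 h; viability by MTS, A490.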
(In general: Formazan colour is commonly taken as a measure of viable cells.)

In another test the test system is JeKo-1 cells. Put plainly: Antiproliferative effect, MTS cell viability assay, JeKo-1 cells. The conditions noted are these: Homo sapiens; JeKo-1 mantle cell lymphoma cells; read-out: IC50 (anti-proliferation) JeKO-1 cells. An outline of the steps:
as §1

SMILES strings stand for the structures. Bounds are passed on as bounds.

Chain of BTK (Q06187 whole entry): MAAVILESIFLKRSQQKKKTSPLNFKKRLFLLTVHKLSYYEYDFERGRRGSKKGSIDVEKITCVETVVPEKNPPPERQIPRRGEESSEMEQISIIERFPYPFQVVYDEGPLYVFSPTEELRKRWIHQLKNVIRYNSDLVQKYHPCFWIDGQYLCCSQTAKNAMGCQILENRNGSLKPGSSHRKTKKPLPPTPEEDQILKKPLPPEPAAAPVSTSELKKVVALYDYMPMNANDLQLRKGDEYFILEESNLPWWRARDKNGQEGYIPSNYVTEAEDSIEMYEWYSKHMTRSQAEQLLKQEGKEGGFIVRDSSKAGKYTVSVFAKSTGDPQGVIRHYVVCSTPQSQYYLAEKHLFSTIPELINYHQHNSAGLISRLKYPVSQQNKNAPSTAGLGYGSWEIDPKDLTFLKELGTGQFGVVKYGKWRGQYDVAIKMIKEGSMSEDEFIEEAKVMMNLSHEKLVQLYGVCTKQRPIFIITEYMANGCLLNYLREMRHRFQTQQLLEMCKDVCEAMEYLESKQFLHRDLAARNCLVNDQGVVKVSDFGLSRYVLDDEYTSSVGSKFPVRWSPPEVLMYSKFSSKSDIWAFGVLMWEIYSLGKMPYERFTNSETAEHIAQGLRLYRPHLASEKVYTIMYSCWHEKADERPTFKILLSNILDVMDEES

In general, Dmax refers to the largest share of the target that was removed. What is called DC50 is the midpoint of the concentration-degradation curve. Regarding `Nc1ncnc2c1c(-c1ccc(Oc3ccccc3)cc1)nn2C1CCN(CCOCCOCCN2CCC(c3ccc4c(c3)CN(C3CCC(=O)NC3=O)C4=O)CC2)CC1` (stereo not drawn) [Compound 10, 3-(5-(1-(2-(2-(2-(4-(4-amino-3-(4-phenoxyphenyl)-1H-pyrazolo[3,4-d]pyrimidin-1-yl)piperidin-1-yl)ethoxy)ethoxy)ethyl)piperidin-4-yl)-1-oxoisoindolin-2-yl)piperidine-2,6-dione], at BTK, the maximal degradation (Dmax) was more than 90% and the DC50 is less than 10 nM. For the same compound, the IC50 in the test with Mino cells is less than 1000 nM. Further, in the test with JeKo-1 cells, the IC50 was in the range of 1000 to 10000 nM.
The matching figures for `Nc1ncnc2c1c(-c1ccc(Oc3ccccc3)cc1)nn2C1CCN(CCOCCN2CCN(c3ccc4c(c3)CN(C3CCC(=O)NC3=O)C4=O)CC2)CC1` (stereo not drawn) [Compound 6, 3-(5-(4-(2-(2-(4-(4-amino-3-(4-phenoxyphenyl)-1H-pyrazolo[3,4-d]pyrimidin-1-yl)piperidin-1-yl)ethoxy)ethyl)piperazin-1-yl)-1-oxoisoindolin-2-yl)piperidine-2,6-dione]: more than 90%, 10 to 50 nM, less than 1000 nM and less than 1000 nM.
For `Nc1ncnc2c1c(-c1ccc(Oc3ccccc3)cc1)nn2C1CCN(C(=O)N2CCN(CCCC3CCN(c4ccc5c(c4)CN(C4CCC(=O)NC4=O)C5=O)CC3)CC2)CC1` (stereo not drawn) [Compound 122, 3-(5-(4-(3-(4-(4-(4-amino-3-(4-phenoxyphenyl)-1H-pyrazolo[3,4-d]pyrimidin-1-yl)piperidine-1-carbonyl)piperazin-1-yl)propyl)piperidin-1-yl)-1-oxoisoindolin-2-yl)piperidine-2,6-dione], at BTK, the Dmax was more than 75% and the 50% degradation concentration (DC50) is more than 50 nM. The IC50 with Mino cells lay within 1000 to 10000 nM. In addition, the IC50 in the test with JeKo-1 cells was in the range of 1000 to 10000 nM.
Consider `Nc1ncnc2c1c(-c1ccc(Oc3ccccc3)cc1)nn2[C@@H]1CCCN(C2CCN(C(=O)N3CCC(N4CCC(c5ccc6c(c5)C(=O)N(C5CCC(=O)NC5=O)C6=O)CC4)CC3)CC2)C1` (stereo partly drawn) [Compound 165, 5-(1′-((R)-3-(4-amino-3-(4-phenoxyphenyl)-1H-pyrazolo[3,4-d]pyrimidin-1-yl)-[1,4′-bipiperidine]-1′-carbonyl)-[1,4′-bipiperidin]-4-yl)-2-(2,6-dioxopiperidin-3-yl)isoindoline-1,3-dione], for which the Dmax at BTK was more than 75%. Besides, the 50% degradation concentration (DC50) at BTK lay within 10 to 50 nM. In addition, the IC50 in the test on Mino cells is 1000 to 10000 nM; in the test with JeKo-1 cells, more than 10000 nM.
Turning to `Nc1ncnc2c1c(-c1ccc(Oc3ccccc3)cc1)nn2[C@@H]1CCCN(CC2CCN(CCCN3CCC(c4ccc5c(c4)C(=O)N(C4CCC(=O)NC4=O)C5=O)CC3)CC2)C1` (stereo partly drawn) [Compound 139, 5-(1-(3-(4-(((R)-3-(4-amino-3-(4-phenoxyphenyl)-1H-pyrazolo[3,4-d]pyrimidin-1-yl)piperidin-1-yl)methyl)piperidin-1-yl)propyl)piperidin-4-yl)-2-(2,6-dioxopiperidin-3-yl)isoindoline-1,3-dione], at BTK, the Dmax is more than 75%. This compound returned a 50% degradation concentration (DC50) at BTK of 10 to 50 nM. The IC50 in the test on Mino cells and with JeKo-1 cells was more than 10000 nM in each case.
On BTK, `Nc1ncnc2c1c(-c1ccc(Oc3ccccc3)cc1)nn2[C@@H]1CCCN(C(=O)N2CCC(CCC3CCN(c4ccc5c(c4)CN(C4CCC(=O)NC4=O)C5=O)CC3)CC2)C1` (stereo partly drawn) [Compound 72, 3-(5-(4-(2-(1-((R)-3-(4-amino-3-(4-phenoxyphenyl)-1H-pyrazolo[3,4-d]pyrimidin-1-yl)piperidine-1-carbonyl)piperidin-4-yl)ethyl)piperidin-1-yl)-1-oxoisoindolin-2-yl)piperidine-2,6-dione] showed a maximal degradation (Dmax) of more than 90% and a DC50 of less than 10 nM. Moreover, the IC50 in the test on Mino cells was 1000 to 10000 nM. In the test with JeKo-1 cells, the IC50 lay in the range of 1000 to 10000 nM.
For the compound `Nc1ncnc2c1c(-c1ccc(Oc3ccccc3)cc1)nn2[C@@H]1CCCN(C(=O)N2CCN(CCCN3CCN(c4ccc5c(c4)CN(C4CCC(=O)NC4=O)C5=O)CC3)CC2)C1` (stereo partly drawn) [Compound 108, 3-(5-(4-(3-(4-((R)-3-(4-amino-3-(4-phenoxyphenyl)-1H-pyrazolo[3,4-d]pyrimidin-1-yl)piperidine-1-carbonyl)piperazin-1-yl)propyl)piperazin-1-yl)-1-oxoisoindolin-2-yl)piperidine-2,6-dione], at BTK, the Dmax is more than 75% and the DC50 is more than 50 nM. Further, in the test with Mino cells, the IC50 was 1000 to 10000 nM. In addition, the IC50 in the test on JeKo-1 cells is 1000 to 10000 nM.
Regarding `Nc1ncnc2c1c(-c1ccc(Oc3ccccc3)cc1)nn2[C@@H]1CCCN(C2CCN(C(=O)N3CCC(CCC4CCN(c5ccc6c(c5)C(=O)N(C5CCC(=O)NC5=O)C6=O)CC4)CC3)CC2)C1` (stereo partly drawn) [Compound 185, 5-(4-(2-(1-((R)-3-(4-amino-3-(4-phenoxyphenyl)-1H-pyrazolo[3,4-d]pyrimidin-1-yl)-[1,4′-bipiperidine]-1′-carbonyl)piperidin-4-yl)ethyl)piperidin-1-yl)-2-(2,6-dioxopiperidin-3-yl)isoindoline-1,3-dione], at BTK, the Dmax was more than 75% and the DC50 is 10 to 50 nM. The IC50 in the test on Mino cells is more than 10000 nM. In the test with JeKo-1 cells, the IC50 is more than 10000 nM.
Compound `Nc1ncnc2c1c(-c1ccc(Oc3ccccc3)cc1)nn2[C@@H]1CCCN(C(=O)N2CCC(CCCC3CCN(c4ccc5c(c4)C(=O)N(C4CCC(=O)NC4=O)C5=O)CC3)CC2)C1` (stereo partly drawn) [Compound 113, 5-(4-(3-(1-((R)-3-(4-amino-3-(4-phenoxyphenyl)-1H-pyrazolo[3,4-d]pyrimidin-1-yl)piperidine-1-carbonyl)piperidin-4-yl)propyl)piperidin-1-yl)-2-(2,6-dioxopiperidin-3-yl)isoindoline-1,3-dione] displayed a Dmax on BTK of more than 75%. Moreover, the DC50 on BTK is more than 50 nM. Besides, the values for the IC50 with Mino cells and in the test on JeKo-1 cells were 1000 to 10000 nM and more than 10000 nM, respectively.
Regarding `Nc1ncnc2c1c(-c1ccc(Oc3ccccc3)cc1)nn2[C@@H]1CCCN(C(=O)N2CCN(CCC3CCN(c4ccc5c(c4)CN(C4CCC(=O)NC4=O)C5=O)CC3)CC2)C1` (stereo partly drawn) [Compound 68, 3-(5-(4-(2-(4-((R)-3-(4-amino-3-(4-phenoxyphenyl)-1H-pyrazolo[3,4-d]pyrimidin-1-yl)piperidine-1-carbonyl)piperazin-1-yl)ethyl)piperidin-1-yl)-1-oxoisoindolin-2-yl)piperidine-2,6-dione], on BTK, the Dmax is more than 90% and the 50% degradation concentration (DC50) was less than 10 nM. Moreover, the IC50 in the test with Mino cells is 1000 to 10000 nM. The IC50 in the test on JeKo-1 cells was in the range of 1000 to 10000 nM.
On BTK, `Nc1ncnc2c1c(-c1ccc(Oc3ccccc3)cc1)nn2C1CCN(CCOCCC2CCN(c3ccc4c(c3)C(=O)N(C3CCC(=O)NC3=O)C4=O)CC2)CC1` (stereo not drawn) [Compound 19, 5-(4-(2-(2-(4-(4-amino-3-(4-phenoxyphenyl)-1H-pyrazolo[3,4-d]pyrimidin-1-yl)piperidin-1-yl)ethoxy)ethyl)piperidin-1-yl)-2-(2,6-dioxopiperidin-3-yl)isoindoline-1,3-dione] had a Dmax of more than 90% and a DC50 of 10 to 50 nM. Besides, the IC50 in the test on Mino cells lay within 1000 to 10000 nM. Also, the IC50 with JeKo-1 cells lay within 1000 to 10000 nM.
On to `Nc1ncnc2c1c(-c1ccc(Oc3ccccc3)cc1)nn2[C@@H]1CCCN(CC2CCN(CCN3CCN(c4ccc5c(c4)CN(C4CCC(=O)NC4=O)C5=O)CC3)CC2)C1` (stereo partly drawn) [Compound 134, 3-(5-(4-(2-(4-(((R)-3-(4-amino-3-(4-phenoxyphenyl)-1H-pyrazolo[3,4-d]pyrimidin-1-yl)piperidin-1-yl)methyl)piperidin-1-yl)ethyl)piperazin-1-yl)-1-oxoisoindolin-2-yl)piperidine-2,6-dione], for which, on BTK, the Dmax was more than 75% and the half-maximal degradation concentration (DC50) fell in the range of 10 to 50 nM. The IC50 in the test on Mino cells fell in the range of 1000 to 10000 nM. Besides, the IC50 with JeKo-1 cells lay in the range of 1000 to 10000 nM.
